Our source for the MIC values is DBAASP.

In brackets after ≈: the same amount, converted by molar mass.

What all share (experiment): ≥ marks a high value that may be exact or a test limit, other limits are often not marked, values filed in µg/mL are converted to µM
The test system of assay [1] is Candida albicans CIB 45437.
For assay [2], the system named is Escherichia coli ATCC 25922.
Assay [3] deals with Escherichia coli CIB 84492.
Assay [4] deals with Staphylococcus aureus ATCC 25923.
Assay [5] concerns Staphylococcus aureus CIB 85462.
Assay [6] relates to Acinetobacter baumannii I NM8.
For assay [7], the system named is Escherichia coli ATCC 25726.
The subject of assay [8] is Klebsiella pneumoniae ATCC 700603.
For assay [9], the system named is Bacillus subtilis ATCC 6633.
Assay [10] deals with Candida albicans ATCC 20032.
For assay [11], the system named is Escherichia coli ATCC 10536.
The test system of assay [12] is Saccharomyces cerevisiae IFO 1850.
Assay [13] concerns Acinetobacter baumannii NM35.
The subject of assay [14] is Acinetobacter baumannii NM8.
Assay [15] relates to Candida albicans ATCC 90028.
Assay [16] deals with Pseudomonas aeruginosa ATCC 27853.
For assay [17], the system named is Staphylococcus epidermidis RP62A/1.
For assay [18], the system named is Staphylococcus epidermidis RP62A.
For assay [19], the system named is Stenotrophomonas maltophilia B32/4.
Assay [20] has as its system Bacillus anthracis Sterne 34F2.
In assay [21] the test system is Bacillus subtilis var. niger ATCC 9372.
Another assay relates to Escherichia coli K91BK.

For orientation: MIC means the smallest concentration in the dilution series that meets the test's criterion for growth inhibition. With `CC[C@H](C)[C@@H]1NC(=O)[C@H](C)NC(=O)[C@@H](NC(=O)[C@H](Cc2ccccc2)NC(=O)[C@@H](NC(=O)[C@@H](NC(=O)[C@@H]2CCCN2C(=O)[C@H](CC(C)C)NC(=O)[C@@H](NC(=O)[C@H](CC(N)=O)NC(=O)[C@H](C)NC(=O)[C@H](C)NC(=O)[C@@H](NC(=O)[C@H](CCCN=C(N)N)NC(=O)[C@@H](NC(=O)[C@@H](NC(=O)[C@H](C)NC(=O)[C@@H]2CCCN2C(=O)[C@H](CC(C)C)NC(=O)[C@@H](N)Cc2ccccc2)C(C)C)[C@@H](C)CC)C(C)C)C(C)C)[C@@H](C)O)C(C)C)CSSC[C@@H](C(=O)O)NC(=O)[C@H](CCCCN)NC(=O)[C@H](CCCCN)NC(=O)[C@H](CO)NC1=O` [FLPAVIRVAANVLPTVFCAISKKC], the minimum inhibitory concentration (MIC) was at least 50 µM in assay [1]; 50 µM (≈ 128 µg/mL) in [2]; 25 µM (≈ 64 µg/mL) in [3]; 6.25 µM (≈ 16 µg/mL) in assay [4]; 12.5 µM (≈ 32 µg/mL) in [5].

Consider `CC(C)C[C@H](NC(=O)CNC(=O)CNC(=O)[C@H](CCCCN)NC(=O)[C@H](C)NC(=O)[C@H](Cc1ccccc1)NC(=O)[C@H](CCCCN)NC(=O)[C@H](CCCCN)NC(=O)[C@H](CC(C)C)NC(=O)CNC(=O)[C@H](CCC(=O)O)NC(=O)[C@H](CC(C)C)NC(=O)[C@H](C)NC(=O)[C@H](CO)NC(=O)[C@H](CO)NC(=O)[C@H](Cc1c[nH]c2ccccc12)NC(=O)[C@H](Cc1ccccc1)NC(=O)CN)C(=O)N[C@@H](CCC(=O)O)C(=O)N[C@@H](C)C(=O)N[C@@H](CC(C)C)C(=O)N[C@H](C(=O)N[C@@H](CC(N)=O)C(=O)N1CCC[C@H]1C(=O)N[C@@H](CCCCN)C(=O)O)[C@@H](C)O` [GFWSSALEGLKKFAKGGLEALTNPK], for which the MIC is 12.5 µM (≈ 33.1 µg/mL) in assay [6], at least 50 µM in assay [7], above 50 µM in assay [8] and above 100 µM in assay [4].

Turning to `CC[C@H](C)[C@H](NC(=O)CN)C(=O)NCC(=O)N[C@H](C(=O)N[C@@H](CCCCN)C(=O)N[C@@H](Cc1ccccc1)C(=O)N[C@@H](CC(C)C)C(=O)NCC(=O)NCC(=O)N[C@H](C(=O)N[C@@H](CCCCN)C(=O)N[C@H](C(=O)N[C@@H](C)C(=O)N[C@@H](CC(C)C)C(=O)N[C@@H](CCCCN)C(=O)NCC(=O)N[C@@H](C)C(=O)N[C@@H](CC(C)C)C(=O)N[C@@H](CCCCN)C(=O)N[C@@H](CCC(=O)O)C(=O)N[C@@H](CC(C)C)C(=O)N[C@@H](C)C(=O)N[C@@H](CO)C(=O)N[C@H](C(=O)N[C@@H](Cc1ccc(O)cc1)C(=O)N[C@H](C(=O)N[C@@H](CC(N)=O)C(N)=O)C(C)C)[C@@H](C)O)[C@@H](C)O)C(C)C)[C@@H](C)O` [GIGTKFLGGVKTALKGALKELASTYVN], the MIC was 27.4 µM (≈ 75 µg/mL) in assay [9], 27.4 µM (≈ 75 µg/mL) in assay [10], 3.43 µM (≈ 9.4 µg/mL) in assay [2] and 1.72 µM (≈ 4.7 µg/mL) in [4].

For `CC(C)C[C@H](NC(=O)[C@H](CCCN=C(N)N)NC(=O)CNC(=O)CNC(=O)[C@@H](NC(=O)[C@H](CCCCN)NC(=O)[C@@H]1CCCN1C(=O)[C@H](Cc1ccccc1)NC(=O)[C@H](Cc1ccc(O)cc1)NC(=O)[C@H](CCC(N)=O)NC(=O)[C@H](CCCCN)NC(=O)CN)C(C)C)C(=O)N[C@@H](CO)C(=O)NCC(=O)N[C@@H](CCCCN)C(=O)N[C@@H](C)C(=O)N1CCC[C@H]1C(=O)N[C@@H](CC(C)C)C(=O)N[C@@H](C)C(=O)N[C@@H](C)C(=O)N[C@@H](CCCCN)C(=O)N[C@H](C(=O)N[C@@H](Cc1cnc[nH]1)C(=O)N[C@@H](CCCN=C(N)N)C(=O)N[C@@H](CCCN=C(N)N)C(=O)N[C@@H](CC(C)C)C(=O)N[C@@H](CCCCN)C(=O)N1CCC[C@H]1C(N)=O)[C@@H](C)O` [GKQYFPKVGGRLSGKAPLAAKTHRRLKP], the minimum inhibitory concentration (MIC) in [9] was determined as 3.92 µM (≈ 12 µg/mL); in assay [11], 9.14 µM (≈ 28 µg/mL); in assay [12] it was 3.92 µM (≈ 12 µg/mL).

For the compound `CC[C@H](C)[C@H](NC(=O)CNC(=O)[C@H](CCCCN)NC(=O)[C@H](CCCCN)NC(=O)[C@H](CC(C)C)NC(=O)[C@H](CO)NC(=O)CNC(=O)[C@H](CC(C)C)NC(=O)CNC(=O)[C@H](C)NC(=O)[C@H](CCCCN)NC(=O)[C@H](Cc1ccccc1)NC(=O)[C@@H](NC(=O)[C@H](CCCCN)NC(=O)[C@H](CCCCN)NC(=O)[C@H](CC(C)C)NC(=O)CN)[C@@H](C)CC)C(=O)N[C@@H](C)C(=O)N[C@@H](C)C(=O)N[C@@H](Cc1cnc[nH]1)C(=O)N[C@H](C(=O)N[C@@H](C)C(=O)N[C@@H](CO)C(N)=O)C(C)C` [GLKKIFKAGLGSLKKGIAAHVAS], the minimal inhibitory concentration (MIC) was 20 µM (≈ 45.9 µg/mL) in [13]; 10 µM (≈ 22.9 µg/mL) in [14]; at least 40 µM in assay [15]; 10 µM (≈ 22.9 µg/mL) in assay [7]; above 250 µM in [4].

For `CC[C@H](C)[C@H](N)C(=O)N[C@@H](CC(C)C)C(=O)NCC(=O)N[C@@H](CCCCN)C(=O)N[C@@H](CC(C)C)C(=O)N[C@@H](CC(C)C)C(=O)N[C@@H](CCCCN)C(=O)N[C@H](C(=O)N[C@@H](C)C(=O)N[C@@H](C)C(=O)NCC(=O)N[C@@H](CC(C)C)C(=O)N[C@@H](CC(C)C)C(=O)N[C@@H](CO)C(=O)N[C@@H](CC(N)=O)C(=O)N[C@@H](CC(C)C)C(N)=O)[C@@H](C)O` [ILGKLLKTAAGLLSNL], the MIC in [14] is at least 64 µM; in [15] it was at least 128 µM; in assay [7], at least 64 µM; in [8] it was 64 µM (≈ 104 µg/mL); in assay [16] it was 64 µM (≈ 104 µg/mL); in [4] it was 8 µM (≈ 13 µg/mL). Further, the minimum inhibitory concentration (MIC) is 4 µM (≈ 6.5 µg/mL) in assay [17], 4 µM (≈ 6.5 µg/mL) in assay [18] and at least 64 µM in assay [19].

For `CC(=O)N[C@@H](CCCN=C(N)N)C(=O)N[C@@H](CCCN=C(N)N)C(=O)N[C@@H](CCCN=C(N)N)C(=O)N[C@@H](C)C(=O)N[C@@H](C)C(=O)N[C@@H](Cc1ccccc1)C(=O)N[C@@H](C)C(=O)N[C@@H](C)C(=O)N[C@@H](Cc1c[nH]c2ccccc12)C(=O)N[C@@H](C)C(=O)N[C@@H](C)C(=O)N[C@@H](Cc1ccccc1)C(=O)N[C@@H](C)C(=O)N[C@@H](C)C(=O)N[C@@H](CCCN=C(N)N)C(=O)N[C@@H](CCCN=C(N)N)C(=O)N[C@@H](CCCN=C(N)N)C(N)=O` [RRRAAFAAWAAFAARRR], the MIC was at least 100 µM in assay [20], at least 50 µM in [21] and at least 100 µM in the assay with Escherichia coli K91BK.
